Reference: patent US10596103B2, “Drug delivery system for delivery of anti-virals” (Merck Sharp & Dohme B.V., priority 2013, dated 2020)

Test: Solubility of vicriviroc in EVA by partitioning experiments
Type: physicochemical
Description: The solubility of vicriviroc in EVA was determined by partitioning experiments. A small sample of polymer film (approximately 10 mg) was immersed in a saturated aqueous vicriviroc solution (5 mL PBS buffer pH 7). Once the film was immersed the drug diffused from the saturated solution into the film until an equilibrium was achieved. As a result the drug concentration of the aqueous solution decreased and the drug concentration in the film increased. The decrease of the drug concentration in the aqueous solution was continuously measured with a fiber optic probe (Rainbow Dynamic Dissolution Monitor).

Vicriviroc loading above which supersaturation occurs (in EVA 28): above 1.4 % by weight
Solubility of vicriviroc in EVA 28 (polymer film in saturated aqueous vicriviroc solution, PBS buffer pH 7, FIG. 14): 1.2-1.4 wt %
Compound: COC[C@@H](c1ccc(C(F)(F)F)cc1)N1CCN(C2(C)CCN(C(=O)c3c(C)ncnc3C)CC2)C[C@@H]1C [vicriviroc]
